Among the data in patent US10988523B2, “Modified lipidated Relaxin B chain peptides and their therapeutic use” (Sanofi, priority 2018, dated 2021) are Emax and EC50 values, retold here.

One may read the Emax as the maximal effect, on the per cent scale that the assay sets. By EC50 is commonly meant the concentration giving half of the maximal effect.

Molecules are shown by their SMILES. *1 amine or outer side, *2 acyl side, *3 side chain or, on linkers, in order; H or OH if unused. Where a SMILES comes first, the peptide text is derived from it. Side-chain parts run from the residue outwards. [ ]: non-standard residue; d: D form. The star is where a group is joined. X10 = CCCCCCCCCCCCCCCC(=O)N[C@@H](CCC(=O)N[C@@H](CCC(=O)N[C@@H](CCC(=O)NCCCOCCOCCOCCCNC(=O)CCC(=O)NCCCOCCOCCOCCCN*)C(=O)O)C(=O)O)C(=O)O; PEG28 = NCCOCCOCCOCCOCCOCCOCCOCCOCCOCCOCCOCCOCCOCCOCCOCCOCCOCCOCCOCCOCCOCCOCCOCCOCCOCCOCCOCCOCCC(=O)O; PEG12 = NCCOCCOCCOCCOCCOCCOCCOCCOCCOCCOCCOCCOCCC(=O)O; γGlu = O=C(O)[C@H](CCC(=O)[*:2])N[*:1]; Stearoyl = CCCCCCCCCCCCCCCCCC(=O)*; Palmitoyl = CCCCCCCCCCCCCCCC(=O)*; Suc = O=C(CCC(=O)[*:2])[*:1]; Nle = CCCC[C@H](N)C(=O)O; AEEA = NCCOCCOCC(=O)O; Aib = CC(C)(N)C(=O)O

This assay concerns the target T1, RXFP1 (Homo sapiens, UniProt Q9HBX9).
T1 construct: OVCAR5 cells expressing endogenous RXFP1; endogenous in cells; host or cells: OVCAR5 cells
T1 sequence (Q9HBX9 1-757): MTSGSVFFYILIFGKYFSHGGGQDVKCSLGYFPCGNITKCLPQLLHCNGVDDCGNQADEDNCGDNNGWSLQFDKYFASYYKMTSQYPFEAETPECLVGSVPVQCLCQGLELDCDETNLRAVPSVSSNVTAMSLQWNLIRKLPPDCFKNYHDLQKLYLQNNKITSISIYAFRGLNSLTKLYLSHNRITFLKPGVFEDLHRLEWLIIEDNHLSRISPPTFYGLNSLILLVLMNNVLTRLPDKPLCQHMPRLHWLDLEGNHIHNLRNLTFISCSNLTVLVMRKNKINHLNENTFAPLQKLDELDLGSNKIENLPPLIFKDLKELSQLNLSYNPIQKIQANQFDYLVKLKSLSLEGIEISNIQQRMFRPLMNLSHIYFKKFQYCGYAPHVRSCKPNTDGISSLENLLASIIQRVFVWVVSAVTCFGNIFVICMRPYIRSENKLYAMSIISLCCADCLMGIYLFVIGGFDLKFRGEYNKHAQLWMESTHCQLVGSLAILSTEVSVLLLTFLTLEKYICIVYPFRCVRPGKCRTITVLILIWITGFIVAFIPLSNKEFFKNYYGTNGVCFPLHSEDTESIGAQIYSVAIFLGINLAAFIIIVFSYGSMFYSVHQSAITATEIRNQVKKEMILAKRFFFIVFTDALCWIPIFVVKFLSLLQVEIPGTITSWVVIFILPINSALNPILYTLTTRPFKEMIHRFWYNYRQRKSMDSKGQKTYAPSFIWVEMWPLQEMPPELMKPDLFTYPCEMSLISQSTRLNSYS
Briefly: OVCAR5 cAMP assay (HTRF), RXFP1 agonist activity. Format: cell-based. The following applies: for Emax: OVCAR-5, maximal cAMP relative to H2-relaxin maximum (100%), read-out: EMax, OVCAR 5 cells (cAMP); for EC50: OVCAR5 cells, cAMP HTRF, read-out: EC50 (nM), OVCAR 5 cells (cAMP). The gist of the method: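 cAMP accumulation readout: after 1 mM IBMX for 40 min, endogenous-RXFP1 OVCAR5 cells got rising peptide concentrations without FCS, 30 min, 37° C, then lysis with HTRF cAMP reagents. Nonlinear regression gave EC50; Emax expressed relative to H2-relaxin maximum, same occasion.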
On the technique in general: cAMP levels reflect the balance of adenylyl cyclase and phosphodiesterase activity.

Consider `CCCCCCCCCCCCCCCC(=O)N[C@@H](CCC(=O)N[C@@H](CCC(=O)N[C@@H](CCC(=O)NCCOCCOCC(=O)NCCOCCOCC(=O)NCCCC[C@H](NC(=O)[C@H](CCCCNC(C)=O)NC(=O)[C@H](CCCCN)NC(=O)[C@H](CCCNC(=N)N)NC(=O)C(C)(C)NC(=O)[C@H](CO)NC(=O)[C@H](Cc1c[nH]c2ccccc12)NC(=O)[C@@H](NC(=O)[C@H](CO)NC(=O)[C@H](CCCC)NC(=O)CNC(=O)[C@H](CCC(=O)O)NC(=O)C(C)(C)NC(=O)C(C)(C)NC(=O)[C@@H](NC(=O)[C@H](CCCCNC(C)=O)NC(=O)[C@H](C)NC(=O)[C@H](CCCNC(=N)N)NC(=O)[C@@H](NC(=O)[C@H](CCCCN)NC(=O)[C@H](CCC(=O)O)NC(=O)[C@H](CCCNC(=N)N)NC(=O)CNC(=O)[C@H](CCC(=O)O)NC(=O)[C@H](CC(C)C)NC(C)=O)C(C)C)[C@@H](C)CC)[C@@H](C)O)C(N)=O)C(=O)O)C(=O)O)C(=O)O` [compound 62] (Ac-LEGREKVRAK(Ac)I[Aib][Aib]EG[Nle]STWS[Aib]RKK(Ac)K([AEEA-AEEA-γGlu-γGlu-γGlu-Palmitoyl])-NH2), for which the Emax was determined as 87%.

Regarding `CCCCCCCCCCCCCCCC(=O)N[C@@H](CCC(=O)NCCCC[C@H](NC(=O)[C@H](CCCCN)NC(=O)[C@H](CCCNC(=N)N)NC(=O)C(C)(C)NC(=O)[C@H](CO)NC(=O)[C@H](Cc1c[nH]c2ccccc12)NC(=O)[C@@H](NC(=O)[C@H](CO)NC(=O)[C@H](CCCC)NC(=O)CNC(=O)[C@H](CCC(=O)O)NC(=O)C(C)(C)NC(=O)C(C)(C)NC(=O)[C@@H](NC(=O)[C@H](CCC(N)=O)NC(=O)[C@H](C)NC(=O)[C@H](CCCNC(=N)N)NC(=O)[C@@H](NC(=O)[C@H](CCCCN)NC(=O)[C@H](CCC(=O)O)NC(=O)[C@H](CCCNC(=N)N)NC(=O)CNC(=O)[C@H](CCC(=O)O)NC(=O)[C@H](CC(C)C)NC(C)=O)C(C)C)[C@@H](C)CC)[C@@H](C)O)C(N)=O)C(=O)O` [compound 2] (Ac-LEGREKVRAQI[Aib][Aib]EG[Nle]STWS[Aib]RKK([γGlu-Palmitoyl])-NH2), the Emax worked out at 100%.

`CCCCCCCCCCCCCCCC(=O)N[C@@H](CCC(=O)N[C@@H](CCC(=O)N[C@@H](CCC(=O)NCCCOCCOCCOCCCNC(=O)CCC(=O)NCCCOCCOCCOCCCNC(=O)CCC(=O)NCCCC[C@H](NC(=O)[C@H](CCCCNC(C)=O)NC(=O)[C@H](CCCCN)NC(=O)[C@H](CCCNC(=N)N)NC(=O)C(C)(C)NC(=O)[C@H](CO)NC(=O)[C@H](Cc1c[nH]c2ccccc12)NC(=O)[C@@H](NC(=O)[C@H](CO)NC(=O)[C@H](CCCC)NC(=O)CNC(=O)[C@H](CCC(=O)O)NC(=O)C(C)(C)NC(=O)C(C)(C)NC(=O)[C@@H](NC(=O)[C@H](CCCCNC(C)=O)NC(=O)[C@H](C)NC(=O)[C@H](CCCNC(=N)N)NC(=O)[C@@H](NC(=O)[C@H](CCCCN)NC(=O)[C@H](CCC(=O)O)NC(=O)[C@H](CCCNC(=N)N)NC(=O)CNC(=O)[C@H](CCC(=O)O)NC(=O)[C@H](CC(C)C)NC(C)=O)C(C)C)[C@@H](C)CC)[C@@H](C)O)C(N)=O)C(=O)O)C(=O)O)C(=O)O` [compound 166] (Ac-LEGREKVRAK(Ac)I[Aib][Aib]EG[Nle]STWS[Aib]RKK(Ac)K([Suc-X10])-NH2): the EC50 was 0.26 nM and the Emax was 92%.

Turning to `CCCCCCCCCCCCCCCCCC(=O)N[C@@H](CCC(=O)N[C@@H](CCC(=O)N[C@@H](CCC(=O)NCCOCCOCCOCCOCCOCCOCCOCCOCCOCCOCCOCCOCCC(=O)NCCCC[C@H](NC(=O)[C@H](CCCCN)NC(=O)[C@H](CCCCN)NC(=O)[C@H](CCCNC(=N)N)NC(=O)C(C)(C)NC(=O)[C@H](CO)NC(=O)[C@H](Cc1c[nH]c2ccccc12)NC(=O)[C@@H](NC(=O)[C@H](CO)NC(=O)[C@H](CCCC)NC(=O)CNC(=O)[C@H](CCC(=O)O)NC(=O)C(C)(C)NC(=O)C(C)(C)NC(=O)[C@@H](NC(=O)[C@H](CCC(N)=O)NC(=O)[C@H](C)NC(=O)[C@H](CCCNC(=N)N)NC(=O)[C@@H](NC(=O)[C@H](CCCCN)NC(=O)[C@H](CCC(=O)O)NC(=O)[C@H](CCCNC(=N)N)NC(=O)CNC(=O)[C@H](CCC(=O)O)NC(=O)[C@H](CC(C)C)NC(C)=O)C(C)C)[C@@H](C)CC)[C@@H](C)O)C(N)=O)C(=O)O)C(=O)O)C(=O)O` [compound 97] (Ac-LEGREKVRAQI[Aib][Aib]EG[Nle]STWS[Aib]RKKK([PEG12-γGlu-γGlu-γGlu-Stearoyl])-NH2), the Emax is 98%.

As for `CCCCCCCCCCCCCCCCCC(=O)N[C@@H](CCC(=O)N[C@@H](CCC(=O)N[C@@H](CCC(=O)NCCOCCOCC(=O)NCCOCCOCC(=O)NCCCC[C@H](NC(=O)[C@H](CCCCN)NC(=O)[C@H](CCCCN)NC(=O)[C@H](CCCNC(=N)N)NC(=O)C(C)(C)NC(=O)[C@H](CO)NC(=O)[C@H](Cc1c[nH]c2ccccc12)NC(=O)[C@@H](NC(=O)[C@H](CO)NC(=O)[C@H](CCCC)NC(=O)CNC(=O)[C@H](CCC(=O)O)NC(=O)C(C)(C)NC(=O)C(C)(C)NC(=O)[C@@H](NC(=O)[C@H](CCC(N)=O)NC(=O)C(C)(C)NC(=O)[C@H](CCCNC(=N)N)NC(=O)[C@@H](NC(=O)[C@H](CCCCN)NC(=O)[C@H](CCC(=O)O)NC(=O)[C@H](CCCNC(=N)N)NC(=O)CNC(=O)[C@H](CCC(=O)O)NC(=O)[C@H](CC(C)C)NC(C)=O)C(C)C)[C@@H](C)CC)[C@@H](C)O)C(N)=O)C(=O)O)C(=O)O)C(=O)O` [compound 69] (Ac-LEGREKVR[Aib]QI[Aib][Aib]EG[Nle]STWS[Aib]RKKK([AEEA-AEEA-γGlu-γGlu-γGlu-Stearoyl])-NH2), the Emax came to 87%.

As to `CCCCCCCCCCCCCCCC(=O)N[C@@H](CCC(=O)NCCOCCOCC(=O)N[C@@H](CCC(=O)N[C@@H](CCC(=O)NCCOCCOCC(=O)NCCOCCOCC(=O)NCCCC[C@H](NC(=O)[C@H](CCCCNC(C)=O)NC(=O)[C@H](CCCCN)NC(=O)[C@H](CCCNC(=N)N)NC(=O)C(C)(C)NC(=O)[C@H](CO)NC(=O)[C@H](Cc1c[nH]c2ccccc12)NC(=O)[C@@H](NC(=O)[C@H](CO)NC(=O)[C@H](CCCC)NC(=O)CNC(=O)[C@H](CCC(=O)O)NC(=O)C(C)(C)NC(=O)C(C)(C)NC(=O)[C@@H](NC(=O)[C@H](CCCCNC(C)=O)NC(=O)[C@H](C)NC(=O)[C@H](CCCNC(=N)N)NC(=O)[C@@H](NC(=O)[C@H](CCCCN)NC(=O)[C@H](CCC(=O)O)NC(=O)[C@H](CCCNC(=N)N)NC(=O)CNC(=O)[C@H](CCC(=O)O)NC(=O)[C@H](CC(C)C)NC(C)=O)C(C)C)[C@@H](C)CC)[C@@H](C)O)C(N)=O)C(=O)O)C(=O)O)C(=O)O` [compound 165] (Ac-LEGREKVRAK(Ac)I[Aib][Aib]EG[Nle]STWS[Aib]RKK(Ac)K([AEEA-AEEA-γGlu-γGlu-AEEA-γGlu-Palmitoyl])-NH2), the EC50 came out at 0.38 nM and the Emax came to 105%.

Regarding `CCCCCCCCCCCCCCCCCC(=O)N[C@@H](CCC(=O)N[C@@H](CCC(=O)N[C@@H](CCC(=O)NCCCC[C@H](NC(=O)CCOCCOCCOCCOCCOCCOCCOCCOCCOCCOCCOCCOCCOCCOCCOCCOCCOCCOCCOCCOCCOCCOCCOCCOCCOCCOCCOCCOCCNC(=O)[C@H](CCCCNC(C)=O)NC(=O)[C@H](CCCCN)NC(=O)[C@H](CCCNC(=N)N)NC(=O)C(C)(C)NC(=O)[C@H](CO)NC(=O)[C@H](Cc1c[nH]c2ccccc12)NC(=O)[C@@H](NC(=O)[C@H](CO)NC(=O)[C@H](CCCC)NC(=O)CNC(=O)[C@H](CCC(=O)O)NC(=O)C(C)(C)NC(=O)C(C)(C)NC(=O)[C@@H](NC(=O)[C@H](CCCCNC(C)=O)NC(=O)[C@H](C)NC(=O)[C@H](CCCNC(=N)N)NC(=O)[C@@H](NC(=O)[C@H](CCCCN)NC(=O)[C@H](CCC(=O)O)NC(=O)[C@H](CCCNC(=N)N)NC(=O)CNC(=O)[C@H](CCC(=O)O)NC(=O)[C@H](CC(C)C)NC(C)=O)C(C)C)[C@@H](C)CC)[C@@H](C)O)C(N)=O)C(=O)O)C(=O)O)C(=O)O` [compound 49] (Ac-LEGREKVRAK(Ac)I[Aib][Aib]EG[Nle]STWS[Aib]RKK(Ac)[PEG28]K([γGlu-γGlu-γGlu-Stearoyl])-NH2), the Emax is 106%.
